Source: patent US10988477B2 (Merck Patent GmbH, priority 2018, dated 2021)

target: GCN2 kinase (Homo sapiens, UniProt Q9P2K8); assay: GCN2 enzyme inhibition assay (Transcreener ADP2 fluorescence polarization); assay type: biochemical; settings: Enzyme activity for compounds of Formula IV; Ki(app), 280 μM ATP, 25° C.
Summary of the method: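 Run at 25 °C in 25 mM Tris-HCl pH 7.5, 50 mM NaCl, 10 mM MgCl2, 1 mM DTT with 4 nM GCN2, 280 μM ATP and 200 μM (RS)7 peptide; compound (0–8 μM final) preincubated 10 min, reaction 1 h. ADP read by antibody/tracer FP; IC50 and Ki(app) from tight-binding fit.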

Sequence of GCN2 kinase (Q9P2K8 whole entry): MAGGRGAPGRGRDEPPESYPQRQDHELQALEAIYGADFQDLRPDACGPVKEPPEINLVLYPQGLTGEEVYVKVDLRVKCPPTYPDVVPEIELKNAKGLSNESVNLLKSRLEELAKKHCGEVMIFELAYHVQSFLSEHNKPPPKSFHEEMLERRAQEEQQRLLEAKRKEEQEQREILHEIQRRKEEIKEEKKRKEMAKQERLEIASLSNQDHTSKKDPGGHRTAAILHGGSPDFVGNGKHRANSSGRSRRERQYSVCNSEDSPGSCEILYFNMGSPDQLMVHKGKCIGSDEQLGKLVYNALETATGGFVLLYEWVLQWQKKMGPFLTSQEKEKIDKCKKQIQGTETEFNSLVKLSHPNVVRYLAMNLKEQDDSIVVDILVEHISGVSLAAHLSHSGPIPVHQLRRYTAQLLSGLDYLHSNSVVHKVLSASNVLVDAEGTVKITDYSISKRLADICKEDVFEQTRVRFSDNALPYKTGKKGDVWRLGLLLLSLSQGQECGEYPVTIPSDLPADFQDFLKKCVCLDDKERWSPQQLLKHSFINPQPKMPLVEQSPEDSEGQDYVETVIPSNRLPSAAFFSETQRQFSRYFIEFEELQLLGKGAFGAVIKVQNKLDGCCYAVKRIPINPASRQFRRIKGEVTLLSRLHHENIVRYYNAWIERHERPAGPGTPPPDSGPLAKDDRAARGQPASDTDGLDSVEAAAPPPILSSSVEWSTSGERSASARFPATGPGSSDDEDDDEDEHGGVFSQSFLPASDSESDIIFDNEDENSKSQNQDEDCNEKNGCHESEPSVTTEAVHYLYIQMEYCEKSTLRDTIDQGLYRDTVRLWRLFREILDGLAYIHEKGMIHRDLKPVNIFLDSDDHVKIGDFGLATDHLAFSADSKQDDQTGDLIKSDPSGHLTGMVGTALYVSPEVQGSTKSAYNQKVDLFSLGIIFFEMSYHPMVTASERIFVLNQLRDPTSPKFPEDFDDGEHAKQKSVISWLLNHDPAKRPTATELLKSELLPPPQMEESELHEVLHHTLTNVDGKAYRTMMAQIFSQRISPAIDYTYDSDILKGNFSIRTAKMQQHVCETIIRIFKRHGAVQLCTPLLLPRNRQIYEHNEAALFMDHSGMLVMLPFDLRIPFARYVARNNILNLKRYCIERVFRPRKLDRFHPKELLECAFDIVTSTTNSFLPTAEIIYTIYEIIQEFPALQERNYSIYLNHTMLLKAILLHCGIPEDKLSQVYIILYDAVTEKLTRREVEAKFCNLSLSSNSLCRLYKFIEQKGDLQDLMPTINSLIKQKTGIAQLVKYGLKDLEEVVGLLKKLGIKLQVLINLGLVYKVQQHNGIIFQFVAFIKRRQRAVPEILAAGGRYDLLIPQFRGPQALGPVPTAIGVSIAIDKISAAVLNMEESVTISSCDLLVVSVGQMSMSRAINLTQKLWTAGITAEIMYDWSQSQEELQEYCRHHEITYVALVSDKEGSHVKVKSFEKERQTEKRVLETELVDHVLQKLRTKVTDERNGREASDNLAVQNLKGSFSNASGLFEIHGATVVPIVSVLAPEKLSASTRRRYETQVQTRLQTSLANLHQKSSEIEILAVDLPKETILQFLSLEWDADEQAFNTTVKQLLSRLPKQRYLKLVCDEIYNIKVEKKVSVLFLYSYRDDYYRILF

| Compound | Ki |
| --- | --- |
| O=S1(=O)CCCN1C1CCCN(c2ccnc(-c3cnc4cnc(C(F)(F)F)cn34)n2)C1 (stereo not drawn) [IV-658, 2-(1-(2-(6-(Trifluoromethyl)imidazo[1,2-a]pyrazin-3-yl)pyrimidin-4-yl)piperidin-3-yl)isothiazolidine 1,1-dioxide] | 100 to 1000 nM |
| FC(F)(F)c1cn2c(-c3nccc(N4CCCC(c5ncon5)C4)n3)cnc2cn1 (stereo not drawn) [IV-321, 3-(1-(2-(6-(Trifluoromethyl)imidazo[1,2-a]pyrazin-3-yl)pyrimidin-4-yl)piperidin-3-yl)-1,2,4-oxadiazole] | 100 to 1000 nM |
| OCC1CCCCN(c2ccnc(-c3cnc4cnc(C(F)(F)F)cn34)n2)C1 (stereo not drawn) [IV-445, (1-(2-(6-(Trifluoromethyl)imidazo[1,2-a]pyrazin-3-yl)pyrimidin-4-yl)azepan-3-yl)methanol] | 100 to 1000 nM |
| NC(=O)C1CCN(c2ccnc(-c3cnc4cnc(C(F)(F)F)cn34)n2)CC1 [IV-611, 1-(2-(6-(Trifluoromethyl)imidazo[1,2-a]pyrazin-3-yl)pyrimidin-4-yl)piperidine-4-carboxamide] | 100 to 1000 nM |
| NC(=O)c1cn2c(-c3cccc(N4CCN(C(=O)C5CC5)CC4)n3)cnc2cn1 [IV-284, 3-(6-(4-(Cyclopropanecarbonyl)piperazin-1-yl)pyridin-2-yl)imidazo[1,2-a]pyrazine-6-carboxamide] | 100 to 1000 nM |
| OCCCC1CCN(c2ccnc(-c3cnc4cnc(C(F)(F)F)cn34)n2)C1 (stereo not drawn) [IV-616, 3-(1-(2-(6-(Trifluoromethyl)imidazo[1,2-a]pyrazin-3-yl)pyrimidin-4-yl)pyrrolidin-3-yl)propan-1-ol] | 10 to 100 nM |
| N#CC1CN(c2ccnc(-c3cnc4cnc(C(F)(F)F)cn34)n2)CCO1 (stereo not drawn) [IV-726] | > 1000 nM |
| OC1CCN(c2ccnc(-c3cnc4cnc(C(F)(F)F)cn34)n2)CC1 [IV-441, 1-(2-(6-(Trifluoromethyl)imidazo[1,2-a]pyrazin-3-yl)pyrimidin-4-yl)piperidin-4-ol] | 100 to 1000 nM |
| NC(=O)c1cn2c(-c3nccc(N4CCC(CO)CC4)n3)cnc2cn1 [IV-243, 3-(4-(4-(Hydroxymethyl)piperidin-1-yl)pyrimidin-2-yl)imidazo[1,2-a]pyrazine-6-carboxamide] | 10 to 100 nM |
| FC(F)(F)c1cn2c(-c3nccc(N4CCCC(c5nn[nH]n5)C4)n3)cnc2cn1 (stereo not drawn) [IV-331, 3-(4-(3-(2H-Tetrazol-5-yl)piperidin-1-yl)pyrimidin-2-yl)-6-(trifluoromethyl)imidazo[1,2-a]pyrazine] | 100 to 1000 nM |
| O=C1CN(C2CCN(c3ccnc(-c4cnc5cnc(C(F)(F)F)cn45)n3)C2)CCN1 (stereo not drawn) [IV-602, 4-(1-(2-(6-(Trifluoromethyl)imidazo[1,2-a]pyrazin-3-yl)pyrimidin-4-yl)pyrrolidin-3-yl)piperazin-2-one] | 100 to 1000 nM |
| CC(=O)N1CCN(c2nc(C)cc(-c3cnc4cnc(C(N)=O)cn34)n2)CC1 [IV-188, 3-(2-(4-Acetylpiperazin-1-yl)-6-methylpyrimidin-4-yl)imidazo[1,2-a]pyrazine-6-carboxamide] | 100 to 1000 nM |
| COCCn1ccc(C(=O)N[C@H]2CCCN(c3ccnc(-c4cnc5cnc(C(F)(F)F)cn45)n3)C2)n1 [IV-745] | > 1000 nM |
| NC(=O)c1cn2c(-c3nccc(N4CCCCC4CO)n3)cnc2cn1 (stereo not drawn) [IV-241, 3-(4-(2-(Hydroxymethyl)piperidin-1-yl)pyrimidin-2-yl)imidazo[1,2-a]pyrazine-6-carboxamide] | 100 to 1000 nM |
| NS(=O)(=O)C1CCCN(c2ccnc(-c3cnc4cnc(C(F)(F)F)cn34)n2)C1 (stereo not drawn) [IV-536, 1-(2-(6-(Trifluoromethyl)imidazo[1,2-a]pyrazin-3-yl)pyrimidin-4-yl)piperidine-3-sulfonamide] | 100 to 1000 nM |

same assay, conditions: compounds of Formula II; 280 μM ATP, 4 nM GCN2 kinase

| Compound | Ki | IC50 |
| --- | --- | --- |
| CC1C(CNS(C)(=O)=O)OCCN1c1cc(-c2cnc3ccc(C(F)F)nn23)ncn1 (single isomer, unassigned) [II-371, N-((4-(6-(6-(Difluoromethyl)imidazo[1,2-b]pyridazin-3-yl)pyrimidin-4-yl)-3-methylmorpholin-2-yl)methyl)methanesulfonamide] | < 10 nM | – |
| CCC1CC(N=S(C)(C)=O)CN(c2cc(-c3cnc4ccc(C(F)F)nn34)ncn2)C1 (single isomer, unassigned) [II-651, ((1-(6-(6-(Difluoromethyl)imidazo[1,2-b]pyridazin-3-yl)pyrimidin-4-yl)-5-ethylpiperidin-3-yl)imino)dimethyl-λ^6-sulfanone] | 10 to 1000 nM | – |
| CC1CCC(NS(C)(=O)=O)CN1c1cc(-c2cnc3ccc(C(F)F)nn23)ncn1 (stereo not drawn) [II-552, N-(1-(6-(6-(Difluoromethyl)imidazo[1,2-b]pyridazin-3-yl)pyrimidin-4-yl)-6-methylpiperidin-3-yl)methanesulfonamide] | 10 to 1000 nM | – |
| C[C@H]1[C@H](CNS(C)(=O)=O)CCCN1c1cc(-c2cnc3ccc(C(F)F)nn23)ncn1 [II-756, N-(((2S,3S)-1-(6-(6-(difluoromethyl)imidazo[1,2-b]pyridazin-3-yl)pyrimidin-4-yl)-2-methylpiperidin-3-yl)methyl)methanesulfonamide] | – | > 1000 nM |
| Cc1cc(C(=O)N=S(C)(C)=O)cc(-c2cc(-c3cnc4ccc(C(F)F)nn34)ncn2)c1 [II-611, 3-(6-(6-(difluoromethyl)imidazo[1,2-b]pyridazin-3-yl)pyrimidin-4-yl)-N-(dimethyl(oxo)-λ^6-sulfanylidene)-5-methylbenzamide] | 10 to 1000 nM | – |
| CC(NS(C)(=O)=O)c1cccc(-c2cc(-c3cnc4ccc(C(F)F)nn34)ncn2)c1 (stereo not drawn) [II-609, N-[1-[3-[6-[6-(Difluoromethyl)imidazo[1,2-b]pyridazin-3-yl]pyrimidin-4-yl]phenyl]ethyl]methanesulfonamide] | < 10 nM | – |
| CC1CC(P(C)(C)=O)CN(c2cc(-c3cnc4ccc(C(F)(F)F)nn34)ncn2)C1 (stereo not drawn) [II-712, 3-[6-(3-Dimethylphosphoryl-5-methyl-1-piperidyl)pyrimidin-4-yl]-6-(trifluoromethyl)imidazo[1,2-b]pyridazine] | > 1000 nM | – |
| CS(C)(=O)=NC1CC(C(F)(F)F)CN(c2cc(-c3cnc4ccc(C(F)F)nn34)ncn2)C1 (stereo not drawn) [II-694, ((1-(6-(6-(Difluoromethyl)imidazo[1,2-b]pyridazin-3-yl)pyrimidin-4-yl)-5-(trifluoromethyl)piperidin-3-yl)imino)dimethyl-λ^6-sulfanone] | 10 to 1000 nM | – |
| CS(=O)(=O)NCc1cccc(-c2cc(-c3cnc4ccc(C(F)F)nn34)ncn2)c1 [II-576, N-[[3-[6-[6-(Difluoromethyl)imidazo[1,2-b]pyridazin-3-yl]pyrimidin-4-yl]phenyl]methyl]methanesulfonamide] | < 10 nM | – |
| CN1CCN(c2cc(-c3cnc4ccc(C(F)F)nn34)ncn2)CC1CS(N)(=O)=O (stereo not drawn) [II-464, (4-(6-(6-(Difluoromethyl)imidazo[1,2-b]pyridazin-3-yl)pyrimidin-4-yl)-1-methylpiperazin-2-yl)methanesulfonamide] | 10 to 1000 nM | – |
| OC[C@@H]1CCCN(c2cc(-c3cnc4ccc(C(F)(F)F)nn34)ncn2)C1 [II-517, (R)-(1-(6-(6-(Trifluoromethyl)imidazo[1,2-b]pyridazin-3-yl)pyrimidin-4-yl)piperidin-3-yl)methanol] | 10 to 1000 nM | – |

same assay, conditions: compounds of Formula IV; 280 μM ATP, 4 nM GCN2 kinase

| Compound | IC50 |
| --- | --- |
| Cc1n[nH]cc1[C@@H]1C[C@@H](C)CN(c2nccc(-c3cnc4cnc(C(F)(F)F)cn34)n2)C1 [IV-756, -(2-((3R,5S)-3-methyl-5-(3-methyl-1H-pyrazol-4-yl)piperidin-1-yl)pyrimidin-4-yl)-6-(trifluoromethyl)imidazo[1,2-a]pyrazine] | 10 to 1000 nM |
